# From ChEMBL document CHEMBL3297692, “Discovery of naphthyl-fused 5-membered lactams as a new class of m1 positive allosteric modulators” (ACS Med Chem Lett, 2014)
# The source made the active and inactive calls. No cut-off for these calls is given here.
# Key:
# [1] = target: T1, Muscarinic acetylcholine receptor M1 (Homo sapiens) (UniProt P11229); assay: Positive allosteric modulation of human mAChR1 expressed in CHONFAT cells assessed as potention of acetylcholine-induced effect incubated for 4 mins prior to acetylcholine addition measured after 4 mins by FLIPR assay; type: cell-based
# T1 sequence (whole entry): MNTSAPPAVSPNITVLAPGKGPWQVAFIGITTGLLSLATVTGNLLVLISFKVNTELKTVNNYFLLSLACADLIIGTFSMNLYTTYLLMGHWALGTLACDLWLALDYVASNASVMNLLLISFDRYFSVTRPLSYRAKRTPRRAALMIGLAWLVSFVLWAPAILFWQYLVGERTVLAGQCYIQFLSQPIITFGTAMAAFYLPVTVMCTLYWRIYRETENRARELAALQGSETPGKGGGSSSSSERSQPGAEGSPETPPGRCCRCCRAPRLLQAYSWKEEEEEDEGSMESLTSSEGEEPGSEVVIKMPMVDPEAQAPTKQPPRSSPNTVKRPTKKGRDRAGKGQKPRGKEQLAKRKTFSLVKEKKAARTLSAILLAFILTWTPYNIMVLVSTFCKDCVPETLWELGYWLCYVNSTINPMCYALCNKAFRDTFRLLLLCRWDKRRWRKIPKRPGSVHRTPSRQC
# [2] = Plasma protein binding in rat by equilibrium dialysis method; type: ADME, cell-free; conditions: read-out: PPB (converted)
# [3] = Plasma protein binding in human by equilibrium dialysis method; type: ADME, cell-free; conditions: read-out: PPB (converted)
# [4] = Apparent passive permeability of the compound; type: physicochemical; conditions: not told
# [5] = target: MDR1 (ABCB1, P-glycoprotein) (Homo sapiens, UniProt P08183); assay: Effect on human MDR1-mediated drug transport assessed as efflux ratio of permeability from basolateral to apical side over apical to basolateral side; type: ADME; conditions: not told
# [6] = test system: MDR1a; assay: Effect on rat MDR1a-mediated drug transport assessed as efflux ratio of permeability from basolateral to apical side over apical to basolateral side; type: ADME; conditions: not told
# [7] = test system: Plasma; assay: Plasma concentration in Sprague-Dawley rat at 10 mg/kg, po; type: ADME, organism-based; set-up: dose 10 mg/kg, route oral; conditions: in vivo
# [8] = test system: Cerebrospinal fluid; assay: Drug uptake in cerebrospinal fluid in Sprague-Dawley rat at 10 mg/kg, po; type: ADME, organism-based; set-up: dose 10 mg/kg, route oral; conditions: in vivo, read-out: Drug uptake
# [9] = test system: Nucleic Acid; assay: Ratio of drug uptake in Sprague-Dawley rat cerebrospinal fluid to unbound plasma level in rat; type: ADME
# [10] = Solubility of the compound at pH 2; type: physicochemical; conditions: buffer
# [11] = Solubility of the compound at pH 7; type: physicochemical; conditions: buffer
# [12] = Lipophilicity, log D of the compound by HPLC analysis; type: physicochemical
# [13] = target: T1, Muscarinic acetylcholine receptor M1 (Homo sapiens); assay: Potentiation of human mAChR1 expressed in CHONFAT cells assessed as fold shift in acetylcholine response curve at 1.8 uM incubated for 4 mins prior to acetylcholine addition measured after 4 mins relative to control; type: cell-based
# [14] = target: T1, Muscarinic acetylcholine receptor M1 (Homo sapiens); assay: Potentiation of human mAChR1 expressed in CHONFAT cells assessed as fold shift acetylcholine response curve incubated for 4 mins prior to acetylcholine addition measured after 4 mins relative to control; type: cell-based
# [15] = test system: Mus musculus; assay: Reversal of scopolamine-induced memory deficit in B6SJL mouse contextual fear conditioning model at 1 mg/kg, ip after 30 mins relative to vehicle-treated control; type: functional, organism-based; set-up: dose 1 mg/kg
# [16] = test system: Plasma; assay: Plasma concentration in B6SJL mouse contextual fear conditioning model at 1 mg/kg, ip; type: ADME, organism-based; set-up: dose 1 mg/kg, route intraperitoneal; conditions: in vivo
# [17] = Clearance in rat at 2 mg/kg, iv; type: ADME, organism-based; set-up: dose 2 mg/kg, route intravenous; conditions: in vivo
# [18] = Volume of distribution at steady state in rat at 2 mg/kg, iv; type: ADME, organism-based; set-up: dose 2 mg/kg, route intravenous; conditions: in vivo, read-out: Vdss
# [19] = Half life in rat at 2 mg/kg, iv; type: ADME, organism-based; set-up: dose 2 mg/kg, route intravenous; conditions: in vivo
# [20] = Clearance in dog at 0.125 mg/kg, iv; type: ADME, organism-based, Canis lupus familiaris; set-up: dose 0.125 mg/kg, route intravenous; conditions: in vivo
# [21] = Volume of distribution at steady state in dog at 0.125 mg/kg, iv; type: ADME, organism-based, Canis lupus familiaris; set-up: dose 0.125 mg/kg, route intravenous; conditions: in vivo, read-out: Vdss
# [22] = Half life in dog at 0.125 mg/kg, iv; type: ADME, organism-based, Canis lupus familiaris; set-up: dose 0.125 mg/kg, route intravenous; conditions: in vivo
# [23] = Fraction unbound in rat plasma by equilibrium dialysis method; type: ADME, cell-free
# [24] = Fraction unbound in human plasma by equilibrium dialysis method; type: ADME, cell-free
# [25] = test system: Mus musculus; assay: Reversal of scopolamine-induced memory deficit in ip dosed B6SJL mouse contextual fear conditioning model at 1 uM plasma level after 30 mins relative to vehicle-treated control; type: functional, organism-based
# MDR1 (ABCB1, P-glycoprotein), sequence (P08183 whole entry): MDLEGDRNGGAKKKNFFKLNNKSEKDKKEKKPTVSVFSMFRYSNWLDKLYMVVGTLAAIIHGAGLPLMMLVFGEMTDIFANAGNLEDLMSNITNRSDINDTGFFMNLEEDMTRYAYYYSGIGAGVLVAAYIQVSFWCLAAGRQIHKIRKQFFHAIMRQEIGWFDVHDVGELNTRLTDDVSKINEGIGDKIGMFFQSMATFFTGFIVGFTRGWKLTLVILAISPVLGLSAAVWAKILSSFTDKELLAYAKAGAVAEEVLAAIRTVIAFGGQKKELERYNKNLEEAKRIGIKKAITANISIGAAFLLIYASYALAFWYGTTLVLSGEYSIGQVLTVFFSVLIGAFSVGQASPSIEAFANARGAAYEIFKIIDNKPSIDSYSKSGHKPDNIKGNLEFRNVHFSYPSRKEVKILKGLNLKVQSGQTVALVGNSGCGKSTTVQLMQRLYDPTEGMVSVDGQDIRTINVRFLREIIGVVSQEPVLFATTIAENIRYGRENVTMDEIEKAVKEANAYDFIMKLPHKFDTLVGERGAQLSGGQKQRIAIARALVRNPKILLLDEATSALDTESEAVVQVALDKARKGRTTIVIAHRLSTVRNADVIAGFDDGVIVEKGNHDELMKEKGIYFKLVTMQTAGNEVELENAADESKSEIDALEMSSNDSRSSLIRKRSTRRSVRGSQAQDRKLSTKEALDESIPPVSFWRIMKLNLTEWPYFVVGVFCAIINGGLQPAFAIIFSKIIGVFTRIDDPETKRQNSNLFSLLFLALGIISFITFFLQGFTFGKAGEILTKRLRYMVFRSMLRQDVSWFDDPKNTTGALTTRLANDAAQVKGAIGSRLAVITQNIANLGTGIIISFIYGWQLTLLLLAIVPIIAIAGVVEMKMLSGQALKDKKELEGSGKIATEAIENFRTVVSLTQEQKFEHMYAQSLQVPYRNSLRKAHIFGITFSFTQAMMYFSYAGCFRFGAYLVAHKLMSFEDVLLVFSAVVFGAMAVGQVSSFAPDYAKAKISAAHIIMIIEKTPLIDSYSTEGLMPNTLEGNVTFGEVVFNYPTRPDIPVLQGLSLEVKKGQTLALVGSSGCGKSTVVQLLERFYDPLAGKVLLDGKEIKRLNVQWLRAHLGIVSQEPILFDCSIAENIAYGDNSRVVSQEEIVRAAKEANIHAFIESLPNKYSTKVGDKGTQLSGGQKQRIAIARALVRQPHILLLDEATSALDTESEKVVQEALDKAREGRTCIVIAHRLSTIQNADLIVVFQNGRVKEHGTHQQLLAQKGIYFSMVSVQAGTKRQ
SMILES,IP [1] [nM],fraction unbound [2],fraction unbound [3],Papp [4] [×10⁻⁶ cm/s],efflux ratio [5],efflux ratio [6],further results
N#CC1(c2ccccn2)CCN(Cc2cc3c(c4ccccc24)CN([C@H]2CCCC[C@H]2O)C3=O)CC1,150,–,–,–,–,–,–
N#CC1(c2ccccn2)CCN(Cc2cc3c(c4ccccc24)CN(C2CCOCC2)C3=O)CC1,280,–,–,–,–,–,–
N#CC1(c2ccccn2)CCN(Cc2cc3c(c4ccccc24)CN([C@H]2CCCC[C@@H]2O)C3=O)CC1,15,0.05,0.08,34,3.2,4.3,concentration [7]: 5180 nM; concentration [8]: 134 nM; Ratio [9]: 0.51; solubility [10]: 195 µM; solubility [11]: 11 µM; logD [12]: 2.9; fold change (FC) [13]: 40; Activity [14]: Dose-dependent effect; Activity [15]: Active; concentration [16]: 1500 nM; clearance [17]: 4.1 mL/min/kg; Vd [18]: 2.8 L/kg; half-life [19]: 12 h; clearance [20]: 2.1 mL/min/kg; Vd [21]: 1.2 L/kg; half-life [22]: 6.7 h; fraction unbound [23]: 0.05; fraction unbound [24]: 0.08
N#CC1(c2cccnn2)CCN(Cc2cc3c(c4ccccc24)CN([C@H]2CCCC[C@@H]2O)C3=O)CC1,27,0.146,0.144,27,–,–,–
N#CC1(c2cnccn2)CCN(Cc2cc3c(c4ccccc24)CN([C@H]2CCCC[C@@H]2O)C3=O)CC1,31,0.142,0.086,31,8,11,–
Cc1cccc(C2(C#N)CCN(Cc3cc4c(c5ccccc35)CN([C@H]3CCCC[C@@H]3O)C4=O)CC2)n1,27,0.01,0.01,28,1.5,3.1,–
N#CC1(c2cccnc2)CCN(Cc2cc3c(c4ccccc24)CN([C@H]2CCCC[C@@H]2O)C3=O)CC1,22,–,–,32,–,–,–
N#CC1(c2ccccn2)CCN(Cc2cc3c(c4ccccc24)CN(c2ccccc2F)C3=O)CC1,290,–,–,–,–,–,–
N#CC1(c2ccncc2)CCN(Cc2cc3c(c4ccccc24)CN([C@H]2CCCC[C@@H]2O)C3=O)CC1,22,–,–,30,26,49,–
N#CC1(c2ccccn2)CCN(Cc2cc3c(c4ccccc24)CN(C2CCCOC2)C3=O)CC1 (centres undefined),1500,–,–,–,–,–,–
CC1c2c(cc(CN3CCC(C#N)(c4ccccn4)CC3)c3ccccc23)C(=O)N1[C@H]1CCCC[C@@H]1O (mixture of isomers),19,0.014,0.06,29,1.7,4.1,concentration [7]: 1120 nM; concentration [8]: 4.7 nM; Ratio [9]: 0.3; solubility [10]: 198 µM; solubility [11]: 19 µM; logD [12]: 3.4
Cc1ccnc(C2(C#N)CCN(Cc3cc4c(c5ccccc35)CN([C@H]3CCCC[C@@H]3O)C4=O)CC2)c1,16,0.007,0.006,22,1.3,4.5,concentration [7]: 2340 nM; concentration [8]: 8.6 nM; Ratio [9]: 0.52; solubility [10]: 179 µM; solubility [11]: 3 µM; logD [12]: 3.3
N#CC1(c2ccncn2)CCN(Cc2cc3c(c4ccccc24)CN([C@H]2CCCC[C@@H]2O)C3=O)CC1,17,0.07,0.09,29,6,20,–
N#CC1(c2ccccn2)CCN(Cc2cc3c(c4ccccc24)CN([C@@H]2CCCC[C@H]2O)C3=O)CC1,540,–,–,–,–,–,–
N#CC1(c2ccccn2)CCN(Cc2cc(C(=O)O)c(=O)n3ccccc23)CC1,–,–,–,–,–,–,Activity [25]: Active
N#CC1(c2ccccc2)CCN(Cc2cc3c(c4ccccc24)CN([C@H]2CCCC[C@@H]2O)C3=O)CC1,83,0.006,0.011,23,1.7,3.4,–
O=C1c2cc(CN3CCC(F)(c4ccccn4)CC3)c3ccccc3c2CN1[C@H]1CCCC[C@@H]1O,58,0.015,0.03,34,2.1,2.7,–
